Data reported in US20110052556A1, “PHARMACEUTICAL COMPOSITION COMPRISING RACETAM AND CARNITINE AND PROCESS FOR ITS PREPARATION” (Biolab Sanus Farmaceutical Ltda, priority 2008, published 2011).

System: mitochondria isolated from liver of rat
Experiment: Protection against mitochondrial swelling induced by statins
Assay type: biochemical
Method: Mitochondria were isolated from adult rat liver (MFR) using the technique of differential centrifugation, according to […] and HOGEBOOM (1951), after a fast of 12 h. The liver, removed after death of the animal by cerebral concussion, was wash in a 250 mM saccharose solution containing buffer 10 mM HEPES pH 7.2 and 0.5 mM EGTA, and chopped with a scissors and homogenized in a Potter-Elvehjem homogeneizer. The material was centrifuged at 2500×g for 10 minutes. The resulting supernatant was centrifuged for 10 minutes at 8000×g. The supernatant was discarded and the sediment resuspended in 250 mM saccharose, 5 mM HEPES pH 7.2, 0.3 mM EGTA, and centrifuged as the previous step. […]
Mitochondrial swelling was calculated based on the decrease in tubidity of a mitochondrial suspension measured at 520 nm in a Hitachi spectrometer model U-3000 for a time period between 0 and 800 seconds.
This procedure of evaluation of mitochondria modification is based on fact that the mitochondria suspensions are turbid and scatter incident light. […] A spectrofotometric measurement of the absorbance reduction at 540 nm (Ca^2+-dependent NAD(P)^+-induced alterations in membrane permeability of the mitochondria. Integration of Mitochondrial Function, Ed. J. Lemasters, Plenum, New York, pp. 535-542) is made in a spectrophotometer connected to a potentiometric recorder. […]

Compound | smallest dose that presented some protective effect on mitochondrial swelling induced by statins (swelling induced by Simvastatin, Pravastatin and Lovastatin) [µg/mL] | protection against mitochondria swelling induced by Simvastatin (MFR 0.5 mg/ml, Piracar 0.25/0.65 μg/ml, CoQ 5 μg/ml, FIG. 5)
C[N+](C)(C)C[C@H](O)CC(=O)[O-] [L-carnitine] | 0.5 | –
COC1=C(OC)C(=O)C(C/C=C(\C)CC/C=C(\C)CC/C=C(\C)CC/C=C(\C)CC/C=C(\C)CC/C=C(\C)CC/C=C(\C)CC/C=C(\C)CC/C=C(\C)CCC=C(C)C)=C(C)C1=O [coenzyme Q10, 2,3,dimethoxyl-5-methyl-6-decaprenil-1,4-benzoquinone] | – | effect of the addition of coenzyme Q10 in the protection against mitochondria swelling
